target: human IDO1 (Homo sapiens, UniProt P14902); test: Assessment of human IDO-1 inhibitory activity in Hela cells (Interferon-gamma stimulated HeLa cells, Ehrlich reagent, absorbance 490 nm); format: cell-based; parameters: endogenous in cells; host or cells: HeLa cells stimulated with interferon-gamma; conditions: Hela Human IDO-1 cellular assay
Outline: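 IDO activity induced by 18 h IFN-γ (human 10 ng/ml or murine 5 ng/ml, final) after 1 h compound pre-treatment of HeLa cells at 37 °C. Supernatant kynurenine detected via Ehrlich reagent absorbance at 490 nm following 3% TCA at 50 °C; IC50 set against no-IFN-γ and untreated-stimulated controls.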

human IDO1, sequence (P14902 whole entry): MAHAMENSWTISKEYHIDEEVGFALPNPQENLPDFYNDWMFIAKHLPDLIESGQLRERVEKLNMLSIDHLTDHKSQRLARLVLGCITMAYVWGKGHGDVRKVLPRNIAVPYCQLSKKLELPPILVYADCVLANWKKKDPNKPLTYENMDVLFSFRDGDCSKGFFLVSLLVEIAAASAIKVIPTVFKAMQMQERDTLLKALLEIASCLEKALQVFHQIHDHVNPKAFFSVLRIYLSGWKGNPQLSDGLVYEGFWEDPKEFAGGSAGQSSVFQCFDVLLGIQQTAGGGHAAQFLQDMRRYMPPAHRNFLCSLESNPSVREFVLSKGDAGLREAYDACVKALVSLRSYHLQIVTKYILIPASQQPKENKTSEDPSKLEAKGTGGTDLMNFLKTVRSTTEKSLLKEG

`CCOc1ncc(Nc2cc([C@H](CC(=O)O)C(F)(F)F)ccc2N(CC)C2CCOCC2)cn1` [Example 598, (S)-3-(3-((2-Ethoxypyrimidin-5-yl)amino)-4-(ethyl(tetrahydro-2H-pyran-4-yl)amino)phenyl)-4,4,4-trifluorobutanoic acid] and `CCOc1ncc(Nc2cc(C(C)CC(=O)O)ccc2N(CC)C2CCOCC2)cn1` (single isomer, unassigned) [Example 632, 3-(3-((2-ethoxypyrimidin-5-yl)amino)-4-(ethyl (tetrahydro-2H-pyran-4-yl)amino)phenyl)butanoic acid] cannot be ordered by IC50: less than 50 nM for the first, less than 50 nM for the second.

Compared with `CCN(c1ccc(C(CC)(CC)CC(=O)O)cc1NC(=O)Nc1ccc(C)cc1)C1CCOCC1` [Example 30, 3-Ethyl-3-(4-(ethyl(tetrahydro-2H-pyran-4-yl)amino)-3-(3-(p-tolyl)ureido)phenyl)pentanoic acid], `CCN(c1ccc([C@@H](CC(=O)O)C(F)(F)F)cc1NC(=O)Nc1ccc(C#N)cc1)C1CCOCC1` (single isomer, unassigned) [Example 1271] is higher in IC50: less than 50 nM for the first, greater than 50 nM for the second. The first is the more potent here.

`CCCN(c1ccc([C@H](COC)CC(=O)O)cc1Nc1ccc(C#N)cc1)C1CCOCC1` (single isomer, unassigned) [Example 568] and `CCN(c1ccc([C@@H](COC)CC(=O)O)cc1Nc1ccc(C#N)c(F)c1)C1CCOCC1` (single isomer, unassigned) [Example 353] cannot be ordered by IC50: less than 5 nM for the first, less than 5 nM for the second.

`CCOc1ncc(Nc2cc(C(COC)CC(=O)O)ccc2N2CCOC[C@H]2C(C)C)cn1` (single isomer, unassigned) [Example 914] and `CCC1COCCN1c1ccc([C@@H](COC)CC(=O)O)cc1Nc1cnc(OC)nc1` (single isomer, unassigned) [Example 1284] cannot be ordered by IC50: greater than 50 nM for the first, greater than 50 nM for the second.

First: CCC(CC(=O)O)c1ccc(N2CCOCC2)c(Nc2ccc(C#N)cc2)c1 (single isomer, unassigned) [Example 6 Enantiomer 2, 3-(3-((4-Cyanophenyl)amino)-4-morpholinophenyl)pentanoic acid]
Second: CCC(CC(=O)O)c1ccc(N2CCNCC2)c(Nc2ccc(C#N)cc2)c1 (single isomer, unassigned) [Example 671 Enantiomer 1, 3-(3-((4-Cyanophenyl)amino)-4-(piperazin-1-yl)phenyl)pentanoic acid]
The IC50 of the first is lower: less than 50 nM for the first, greater than 50 nM for the second. The first is the more potent here.

`CCC(CC(=O)O)c1cc(F)c(N(CC)C2CCOCC2)c(Nc2cnc(OCC3CC3)nc2)c1` (single isomer, unassigned) [Example 141, 3-(3-((2-(cyclopropylmethoxy)pyrimidin-5-yl)amino)-4-(ethyl(tetrahydro-2H-pyran-4-yl)amino)-5-fluorophenyl)pentanoic acid] and `CCOc1cnc(Nc2cc([C@@H](CC)CC(=O)O)ccc2N(CC)C2CCOCC2)cn1` (single isomer, unassigned) [Example 465] cannot be ordered by IC50: less than 5 nM for the first, less than 5 nM for the second.

`COCC(CC(=O)O)c1ccc(N(CC(F)F)C2CCOCC2)c(Nc2ccc(Cl)cc2)c1` (single isomer, unassigned) [Example 321 Enantiomer 1, 3-(3-((4-Chlorophenyl)amino)-4-((2,2-difluoroethyl)(tetrahydro-2H-pyran-4-yl)amino)phenyl)-4-methoxybutanoic acid] and `CCC(CC(=O)O)c1ccc(N2CCOC[C@H]2C(C)C)c(Nc2ccc(Cl)cc2)c1` (single isomer, unassigned) [Example 888] cannot be ordered by IC50: less than 5 nM for the first, less than 5 nM for the second.

`CCOc1ncc(Nc2cc([C@H](CC)Cc3nnc[nH]3)ccc2N(CC)C2CCOCC2)cn1` [Example 1338, (R)-4-(1-(4H-1,2,4-Triazol-3-yl)butan-2-yl)-N2-(2-ethoxypyrimidin-5-yl)-N1-ethyl-N1-(tetrahydro-2H-pyran-4-yl)benzene-1,2-diamine] and `CCCN(c1ccc(C(C)(C)CC(=O)O)cc1Nc1cnc(OCC)nc1)C1CCOCC1` [Example 24, 3-(3-((2-ethoxypyrimidin-5-yl)amino)-4-(propyl(tetrahydro-2H-pyran-4-yl)amino)phenyl)-3-methylbutanoic acid] cannot be ordered by IC50: less than 50 nM for the first, less than 50 nM for the second.

— US9790169B2, “IDO inhibitors” (BRISTOL-MYERS SQUIBB COMPANY, priority 2015, dated 2017)
